The record followed here is PMC2653224 (Journal of molecular biology, 2008).

This assay deals with cytochrome c (Fe^2+ cyt c) (Equus caballus, UniProt P00004). The assay is described as follows: equilibrium heme Soret absorbance titration with CO at […] °C. The format is binding.
Chain of cytochrome c (Fe^2+ cyt c) (P00004 2-105): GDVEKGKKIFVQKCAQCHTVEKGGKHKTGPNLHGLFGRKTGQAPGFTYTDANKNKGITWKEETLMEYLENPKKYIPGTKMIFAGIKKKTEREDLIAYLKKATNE

Broadly, the Kd is the free concentration of one partner at which half of the binding sites on the other are occupied at equilibrium, for simple one-to-one binding. High values mean weaker binding, low ones tighter binding. With `[C-]#[O+]` [CO], binding was put at a Kd of 14 ± 8 nM.
